We go through 21 molecules from US20020115853A1, “Benzimidazolones and analogues” (priority 1999, published 2002).

Several values for one entry are separate records, joined by “and”; a condition that tells them apart may be missing. Equal entries are not always repeated.

For one data set, the system named is T47D cells. Description: T47D cell proliferation assay (BrdU incorporation). It is filed as cell-based. The note with it: Homo sapiens, agonist mode, reference progestins, read-out: Estimated EC50, BrdU incorporation, individual studies. The procedure:
1. T47D cell Proliferation Assay
The objective of this assay is the determination of progestational and antiprogestational potency by using a cell proliferation assay in T47D cells. A compound's effect on DNA synthesis in T47D cells is measured.
DMEM:F12 (1:1) (GIBCO, BRL) supplemented with 10% (v/v) fetal bovine serum (not heat-inactivated), 100 U/ml penicillin, […], and 2 mM GlutaMax (GIBCO, BRL). b. Treatment medium: Minimum Essential
Medium (MEM) (#51200-038GIBCO, BRL) phenol red-free supplemented with 0.5% charcoal stripped fetal bovine serum, 100 U/ml penicillin, […] streptomycin, and 2 mM GlutaMax (GIBCO, BRL).
Stock T47 D cells are maintained in growth medium. For BrdU incorporation assay, cells are plated in 96-well plates (Falcon, Becton Dickinson Labware) at 10,000 cells/well in growth medium. […]
At the end of BrdU labeling, the medium is removed and BrdU incorporation is measured using a cell proliferation ELISA kit (#RPN 250, Amersham Life Science) according to manufacturer's instructions. […] Then 25 μl of 1 M sulfuric acid is added to each well to stop color reaction and optical density is read in a plate reader at 450 nm within 5 min.
Square root-transformed data are used for analysis of variance and nonlinear dose response curve fitting for both agonist and antagonist modes. […] EC50 or IC50 values are calculated from the retransformed values. […]

Data set [1] relates to rat uterine decidualization. Description: Rat decidualization assay. It is filed as in vivo. The conditions noted are these: ovariectomized rats, p.o., with progesterone 5.6 mg/kg. As to the method:
2. Rat Decidualization Assay
b. Animals (RACUC protocol #5002)
The animals are treated once daily for seven days.
Uteri are removed and trimmed of fat.
S f. Analysis of Results:
Body weight: Mean total animal body weight (default-kg)
Decidual response: [(D-C)/C]×100%

For `O=c1[nH]c2ccc(-c3cccc([N+](=O)[O-])c3)cc2o1` [Example 11, 6-(3-Nitro-phenyl)-3H-benzooxazol-2-one], the melting point fell in the range of 280 to 281 °C. The molecule `O=c1[nH]c2ccc(-c3cccc([N+](=O)[O-])c3)cc2s1` [Example 12, 6-(3-Nitro-phenyl)-3H-benzothiazol-2-one] displayed a melting point of 276 to 277 °C. `CC(C)N1CC(=O)Nc2ccc(-c3ccc(F)c(Cl)c3)cc21` [Compound C5, 6-(3-Chloro-4-fluoro-phenyl)-4-isopropyl-3,4-dihydro-1H-quinoxalin-2-one] gave a melting point of 208 to 213 °C. Molecule `CC1Nc2cc(-c3ccc(Cl)cc3)ccc2NC1=O` (stereo not drawn) [Example 27, 6-(4-Chloro-phenyl)-3-methyl-3,4-dihydro-1H-quinoxalin-2-one] gave a melting point of 228 to 230 °C.

Consider `CC(=O)O[C@]1(C(C)=O)CC[C@H]2[C@@H]3C[C@H](C)C4=CC(=O)CC[C@]4(C)[C@H]3CC[C@@]21C` [MPA, medroxyprogesterone acetate], for which the EC50 in the data set on T47D cells is 0.019 nM. The molecule `O=[N+]([O-])c1cccc(-c2ccc3[nH]c(=S)n(Cc4ccccc4)c3c2)c1` [Example 25, 1-Benzyl-6-(3-nitrophenyl)-1,3-dihydro-2H-benzimidazole-2-thione] gave a melting point of 244 to 245 °C. In the case of `O=C1CN(Cc2ccccc2)c2cc(-c3cccc(Cl)c3)ccc2N1` [Example 28, 4-Benzyl-6-(3-chlorophenyl)-3,4-dihydroquinoxalin-2 (1H)-one], the melting point was in the range of 182 to 185 °C.

For `O=c1[nH]c2ccc(-c3cccc(Cl)c3)cc2n1Cc1ccccc1` [Compound 1, 1-Benzyl-6-(3-chloro-phenyl)-1,3-dihydro-benzoimidazol-2-one], the melting point lay in the range of 168 to 169 °C. In turn, `CN1CC(=O)Nc2ccc(-c3cccc([N+](=O)[O-])c3)cc21` [Example 26, 6-(3-Nitro-phenyl)-4-methyl-3,4-dihydro-1H-quinoxalin-2-one] yielded a melting point of 237 to 243 °C.

For the molecule `CC(C)OC(=O)N1CC(=S)Nc2ccc(-c3cccc(Cl)c3)cc21` [Example 30, Isopropyl 7-(3-chlorophenyl)-3-thioxo-3,4-dihydroquinoxaline-1(2H)-carboxylate], the melting point lay in the range of 208 to 212 °C. On the same count and under the same terms, the same measure for `CCC1Sc2cc(-c3cccc([N+](=O)[O-])c3)ccc2NC1=O` (stereo not drawn) [Compound B2, 2-Ethyl-7-(3-nitro-phenyl)-4H-benzo[1,4]thiazin-3-one]: 180 °C; for `S=c1[nH]c2ccc(-c3cccc(Cl)c3)cc2n1Cc1ccccc1` [Example 24, 1-Benzyl-6-(3-chlorophenyl)-1,3-dihydro-2H-benzimidazole-2-thione]: 211 to 212 °C; for `Cn1c(=O)[nH]c2ccc(-c3cccc([N+](=O)[O-])c3)cc21` [Compound 4, 1-Methyl-6-(3-nitro-phenyl)-1,3-dihydro-benzoimidazol-2-one]: 264 to 265 °C. For the molecule `CC(C)N1CC(=O)Nc2ccc(-c3cccc(Cl)c3)cc21` [Compound C4, 6-(3-Chloro-phenyl)-4-isopropyl-3,4-dihydro-1H-quinoxalin-2-one], the melting point is 146 to 150 °C. Turning to `CC#C[C@]1(O)CC[C@H]2[C@@H]3CCC4=CC(=O)CCC4=C3[C@@H](c3ccc(N(C)C)cc3)C[C@@]21C` [RU486], in data set [1], the “Estimated IC50, decrease in EC50 progesterone induced decidual response” value was 0.21 mg/kg and 0.14 mg/kg.

For `CC(C)N1CC(=O)Nc2ccc(-c3cc(F)cc(C#N)c3)cc21` [Example 20, 6-(3-Cyano-5-fluorophenyl)-4-isopropyl-3,4-dihydro-1H-quinoxalin-2-one], the melting point was 238 to 240 °C. Same read-out and setting: next, `O=c1[nH]c2ccc(-c3cccc([N+](=O)[O-])c3)cc2[nH]1` [Example 9, 5-(3-Nitro-phenyl)-1,3-dihydro-benzoimidazol-2-one]: 324 to 325 °C; `O=c1[nH]c2ccc(-c3cccc(Cl)c3)cc2s1` [Example 13, 6-(3-Chloro-phenyl)-3H-benzothiazol-2-one]: 195 to 196 °C. In the case of `Cn1c(=O)[nH]c2ccc(-c3cccc(Cl)c3)cc21` [Compound 3, 6-(3-chloro-phenyl)-1-methyl-1,3-dihydro-benzoimidazol-2-one], the melting point lay within 219 to 220 °C.

`O=C1CSc2cc(-c3cccc([N+](=O)[O-])c3)ccc2N1` [Compound B1, 7-(3-Nitro-phenyl)-4H-benzo[1,4]thiazin-3-one] showed a melting point of 290 to 292 °C. `O=c1[nH]c2ccc(-c3cccc([N+](=O)[O-])c3)cc2n1Cc1ccccc1` [Compound 2, 1-Benzyl-6-(3-nitro-phenyl)-1,3-dihydro-benzoimidazol-2-one]: the melting point lay within 202 to 203 °C.

What is called melting point is the temperature of the solid-liquid transition.
